Experiment: xn = mol fraction of the nth substance listed
Details: Fluid (supercritical or subcritical phases), Buoyancy - hydrostatic balance with magnetic suspension - one sinker

[C-]#[O+] [carbon monoxide] + N#N
mass density [kg/m3]
Details	x1 = 0.04999	x1 = 0.1002
250.04 K, 996.97 kPa	13.537	–
250.04 K, 1999 kPa	27.34	–
250.04 K, 4009.9 kPa	55.503	–
250.04 K, 6016.9 kPa	84.044	–
250.04 K, 16000 kPa	220.89	–
250.05 K, 969.13 kPa	–	13.157
250.05 K, 999.78 kPa	–	13.577
250.05 K, 2004.3 kPa	–	27.416
250.05 K, 3998.8 kPa	–	55.373
250.05 K, 7998.5 kPa	112.326	–
250.05 K, 8999 kPa	–	126.622
250.05 K, 9999.8 kPa	140.653	–
250.05 K, 11001 kPa	–	154.742
250.05 K, 11998 kPa	168.354	–
250.05 K, 13033 kPa	–	182.506
250.05 K, 14004 kPa	195.251	–
250.05 K, 15003 kPa	–	208.407
250.05 K, 17999 kPa	245.259	–
250.05 K, 18474 kPa	250.84	–
250.06 K, 3032.9 kPa	–	41.76
250.06 K, 5043.2 kPa	–	70.198
250.06 K, 5999.3 kPa	–	83.836
250.06 K, 6999.1 kPa	–	98.128
250.06 K, 7998.3 kPa	–	112.391
250.06 K, 9998.8 kPa	–	140.734
250.06 K, 11998 kPa	–	168.471
250.06 K, 13998 kPa	–	195.325
250.06 K, 15999 kPa	–	221.035
250.06 K, 16706 kPa	–	229.835
250.06 K, 18000 kPa	–	245.432
250.06 K, 19962 kPa	–	268.002
275.01 K, 997.91 kPa	–	12.276
275.01 K, 1984.4 kPa	–	24.502
275.01 K, 3998.5 kPa	–	49.641
275.01 K, 5998.9 kPa	–	74.708
275.01 K, 7999.4 kPa	–	99.667
275.02 K, 990.79 kPa	12.187	–
275.02 K, 1996 kPa	24.643	–
275.02 K, 4000.1 kPa	49.643	–
275.02 K, 9999.5 kPa	–	124.305
275.02 K, 11999 kPa	148.339	–
275.02 K, 12004 kPa	–	148.483
275.02 K, 13997 kPa	171.74	–
275.02 K, 14001 kPa	–	171.88
275.02 K, 15997 kPa	194.336	–
275.02 K, 15998 kPa	–	194.459
275.02 K, 17997 kPa	–	216.135
275.02 K, 18198 kPa	218.123	–
275.02 K, 19888 kPa	–	235.72
275.02 K, 19917 kPa	235.882	–
275.03 K, 6038.6 kPa	75.17	–
275.03 K, 8036.6 kPa	100.073	–
275.03 K, 10062 kPa	124.995	–
299.96 K, 1003.8 kPa	11.294	–
299.96 K, 2981.9 kPa	33.609	–
299.96 K, 4997.9 kPa	56.34	–
299.96 K, 6998.3 kPa	78.744	–
299.96 K, 9086.5 kPa	101.826	–
299.96 K, 11000 kPa	122.587	–
299.96 K, 12998 kPa	143.747	–
299.96 K, 14954 kPa	163.889	–
299.97 K, 986.71 kPa	11.101	–
299.97 K, 992.98 kPa	–	11.173
299.97 K, 1001.9 kPa	–	11.274
299.97 K, 1989.8 kPa	–	22.417
299.97 K, 1993.4 kPa	22.457	–
299.97 K, 2993.6 kPa	–	33.744
299.97 K, 3975 kPa	44.812	–
299.97 K, 3998.4 kPa	–	45.092
299.97 K, 5020.8 kPa	–	56.608
299.97 K, 5999.2 kPa	–	67.6
299.97 K, 6020.2 kPa	67.811	–
299.97 K, 7034 kPa	–	79.163
299.97 K, 8024.8 kPa	90.132	–
299.97 K, 9073.7 kPa	–	101.718
299.97 K, 9997.1 kPa	–	111.8
299.97 K, 10017 kPa	111.971	–
299.97 K, 11008 kPa	–	122.717
299.97 K, 11999 kPa	–	133.29
299.97 K, 13003 kPa	–	143.858
299.97 K, 13997 kPa	–	154.176
299.97 K, 14807 kPa	–	162.461
299.97 K, 15370 kPa	–	168.159
299.98 K, 7997.5 kPa	–	89.866
299.98 K, 11889 kPa	132.063	–
299.98 K, 13997 kPa	154.113	–
299.98 K, 15997 kPa	174.35	–
299.98 K, 16109 kPa	–	175.535
299.98 K, 17997 kPa	193.879	–
299.98 K, 17999 kPa	–	193.977
299.98 K, 19830 kPa	–	211.228
299.98 K, 19957 kPa	212.314	–
324.97 K, 13743 kPa	137.825	–
324.98 K, 996.21 kPa	10.328	–
324.98 K, 997.48 kPa	–	10.342
324.98 K, 1970.2 kPa	–	20.421
324.98 K, 1981.3 kPa	20.531	–
324.98 K, 2991.3 kPa	30.967	–
324.98 K, 3998.5 kPa	–	41.357
324.98 K, 4008.5 kPa	41.449	–
324.98 K, 4980 kPa	51.417	–
324.98 K, 5960.8 kPa	61.428	–
324.98 K, 6000 kPa	–	61.847
324.98 K, 7025.8 kPa	72.228	–
324.98 K, 7991 kPa	81.935	–
324.98 K, 7999.4 kPa	–	82.05
324.98 K, 8998.7 kPa	91.988	–
324.98 K, 9998.7 kPa	–	101.905
324.98 K, 10007 kPa	101.939	–
324.98 K, 10997 kPa	111.619	–
324.98 K, 11997 kPa	–	121.32
324.98 K, 12000 kPa	121.293	–
324.98 K, 12999 kPa	130.817	–
324.98 K, 13996 kPa	–	140.254
324.98 K, 15957 kPa	158.239	–
324.98 K, 15995 kPa	–	158.639
324.98 K, 17995 kPa	176.379	–
324.98 K, 17996 kPa	–	176.463
324.98 K, 19931 kPa	193.033	–
324.98 K, 19948 kPa	–	193.262
324.99 K, 14116 kPa	141.303	–
349.96 K, 991.96 kPa	–	9.538
349.96 K, 2999.2 kPa	–	28.731
349.96 K, 4997.9 kPa	–	47.663
349.96 K, 6997.9 kPa	–	66.355
349.96 K, 8997.6 kPa	–	84.725
349.96 K, 10998 kPa	–	102.742
349.96 K, 12999 kPa	–	120.335
349.96 K, 14996 kPa	–	137.446
349.96 K, 16994 kPa	–	154.09
349.96 K, 18214 kPa	–	164
349.97 K, 991.18 kPa	9.53	–
349.97 K, 993.39 kPa	–	9.551
349.97 K, 1959 kPa	18.808	–
349.97 K, 1978.8 kPa	–	18.999
349.97 K, 3922.5 kPa	–	37.508
349.97 K, 4004.8 kPa	38.283	–
349.97 K, 5997.7 kPa	–	57.048
349.97 K, 5998.2 kPa	57.037	–
349.97 K, 7998.9 kPa	–	75.601
349.97 K, 8018.6 kPa	75.757	–
349.97 K, 9998.3 kPa	–	93.794
349.97 K, 10022 kPa	93.976	–
349.97 K, 11997 kPa	–	111.586
349.97 K, 12018 kPa	111.731	–
349.97 K, 13995 kPa	–	128.938
349.97 K, 13997 kPa	128.911	–
349.97 K, 15994 kPa	145.784	145.829
349.97 K, 17992 kPa	162.172	162.217
349.97 K, 19655 kPa	175.42	–
349.97 K, 19959 kPa	–	177.859
374.95 K, 1995 kPa	–	17.848
374.95 K, 2998.2 kPa	–	26.743
374.95 K, 4980.9 kPa	–	44.17
374.95 K, 6997.6 kPa	–	61.627
374.95 K, 8997.4 kPa	–	78.624
374.95 K, 10995 kPa	–	95.265
374.95 K, 12994 kPa	–	111.524
374.95 K, 15016 kPa	–	127.569
374.95 K, 16990 kPa	–	142.823
374.95 K, 19967 kPa	–	165.012
374.96 K, 991.14 kPa	8.887	–
374.96 K, 993.41 kPa	–	8.908
374.96 K, 1989.3 kPa	17.794	–
374.96 K, 3998.5 kPa	35.556	–
374.96 K, 4004.8 kPa	–	35.621
374.96 K, 5997.9 kPa	52.996	–
374.96 K, 5999 kPa	–	53.019
374.96 K, 7996.5 kPa	70.138	–
374.96 K, 8024.2 kPa	–	70.391
374.96 K, 9996 kPa	86.957	–
374.96 K, 9997.9 kPa	–	86.999
374.96 K, 11988 kPa	–	103.381
374.96 K, 11996 kPa	103.411	–
374.96 K, 13993 kPa	–	119.504
374.96 K, 13995 kPa	119.477	–
374.96 K, 15990 kPa	135.101	135.151
374.96 K, 17987 kPa	–	150.362
374.96 K, 17988 kPa	150.312	–
374.96 K, 18988 kPa	–	157.82
374.96 K, 19817 kPa	163.859	–
374.96 K, 19971 kPa	–	165.047
400.02 K, 984.4 kPa	–	8.268
400.02 K, 997.16 kPa	–	8.375
400.02 K, 1934.5 kPa	16.2	–
400.02 K, 1975.5 kPa	–	16.545
400.02 K, 2994.3 kPa	–	24.985
400.02 K, 3986.3 kPa	33.151	–
400.02 K, 3997.3 kPa	–	33.254
400.02 K, 4997.1 kPa	–	41.415
400.02 K, 5996.1 kPa	–	49.523
400.02 K, 5998 kPa	49.518	–
400.02 K, 7005.5 kPa	–	57.622
400.02 K, 7994.6 kPa	–	65.495
400.02 K, 7996.6 kPa	65.491	–
400.02 K, 8987 kPa	–	73.307
400.02 K, 9895.5 kPa	–	80.402
400.02 K, 9973.2 kPa	80.982	–
400.02 K, 11025 kPa	–	89.118
400.02 K, 11992 kPa	96.459	–
400.02 K, 11994 kPa	–	96.505
400.02 K, 12991 kPa	–	104.017
400.02 K, 13990 kPa	111.428	111.464
400.02 K, 14988 kPa	–	118.8
400.02 K, 15986 kPa	126.014	126.048
400.02 K, 16227 kPa	–	127.785
400.02 K, 17982 kPa	–	140.257
400.02 K, 17985 kPa	140.246	–
400.02 K, 19027 kPa	147.507	–
400.03 K, 18458 kPa	–	143.591
